Measured values: patent publication US20240327354A1, “GRAM-NEGATIVE BACTERIA EFFLUX PUMP INHIBITORS” (INSTITUT NATIONAL DE LA SANTÉ ET DE LA RECHERCHE MÉDICALE, priority 2021, published 2024)
pEC50: −log10 of the molar value. Where a name gives a salt, the structure may show the parent alone.

System: E. coli BW25113
Experiment: Assay 1: growth inhibition of E. coli by sub-inhibitory pyridomycin in combination with examples (resazurin reduction)
Type: cell-based, Escherichia coli
Conditions: read-out: EC50 on E. coli with 8 μg/mL of pyridomycin, 8 μg/mL pyridomycin, 5 h, 37° C.
From the text: Escherichia coli BW25113 (CGSC 7636) and its derivatives E. coli ΔtolC (JW5503-1, ΔtolC732::kan, CGSC 11430), E. coli ΔacrA (JW0452-3, ΔacrA748::kan, CGSC 11843) and E. coli ΔacrB (JW0451-2, ΔacrB747::kan, CGSC 8609) were obtained from E. coli Genetic Stock Center (CGSC, New Haven, Connecticut) and originated from the Keio Collection (Baba T et al, Mol Sys Biol, 2006). Klebsiella pneumoniae (LMG 2095/ATCC 13883) and K. pneumoniae (ATCC43816), Pseudomonas aeruginosa (PAO1), Acinetobacter baumannii (LMG 1025, ATCC 17978), were obtained from ATCC or BCCM/LMG Bacteria Collection. All bacteria were grown and tested in cation-adjusted Mueller-Hinton broth (CAMHB; BD Difco) at 37° C. For conservation, log phase bacteria were frozen (−80° C.) in CAMHB supplemented with 15% glycerol.
Briefly, E. coli BW25113 were diluted from frozen or growing stocks to an OD600 of 0.0004-0.001 in CAMHB. […] E. coli BW25113 viability was evaluated using the resazurin reduction assay, and measured by fluorescence (POLARstar Omega, BMG Labtech: Ex: 530 nm Em: 590 nm). EC50 were defined as the compound concentration that prevented 50% of resazurin turnover compared to the non-treated bacteria.

| SMILES | pEC50 |
| --- | --- |
| Clc1cc2cc(N[C@H]3CCCNC3)ccc2nc1N1CCNCC1 (stereo in doubt) [Example 104, 3-chloro-2-piperazin-1-yl-N-(3-piperidyl)quinolin-6-amine;dihydrochloride] | > 5.30 |
| CN1CCN(c2ncc(C(F)(F)F)cc2Cl)CC1 [Example 1, 1-[3-chloro-5-(trifluoromethyl)-2-pyridyl]-4-methyl-piperazine] | 3.30 to 4.00 |
| CN1CCN(c2ncc(C(F)(F)F)cc2Br)CC1 [Example 2, 1-[3-bromo-5-(trifluoromethyl)-2-pyridyl]-4-methyl-piperazine] | 4.00 to 5.30 |
| COC(=O)c1cnc(N2CCN(C)CC2)c(Cl)c1 [Example 3, methyl 5-chloro-6-(4-methylpiperazin-1-yl)pyridine-3-carboxylate] | 4.00 to 5.30 |
| CN1CCN(c2ncc(Br)cc2Cl)CC1 [Example 4, 1-(5-bromo-3-chloro-2-pyridyl)-4-methyl-piperazine] | 4.00 to 5.30 |
| CN1CCN(c2ccc(C(F)(F)F)cc2Cl)CC1 [Example 5, 1-[2-chloro-4-(trifluoromethyl)phenyl]-4-methyl-piperazine] | 3.30 to 4.00 |
| NC1CCN(c2ncc(C(F)(F)F)cc2Cl)CC1 [Example 7, 1-[3-chloro-5-(trifluoromethyl)-2-pyridyl]piperidin-4-amine] | 3.30 to 4.00 |
| Cc1cnc(N2CCN(C)CC2)c(Cl)c1 [Example 10, 1-(3-chloro-5-methyl-2-pyridyl)-4-methyl-piperazine] | 4.00 to 5.30 |
| Cc1cnc(N2CCNCC2)c(Cl)c1 [Example 12, 1-(3-chloro-5-methyl-2-pyridyl)piperazine; hydrochloride] | 4.00 to 5.30 |
| COc1cnc(N2CCNCC2)c(Cl)c1 [Example 13, 1-(3-chloro-5-methoxy-2-pyridyl)piperazine;hydrochloride] | 3.30 to 4.00 |
| COC(=O)c1cnc(N2CCNCC2)c(Cl)c1 [Example 18, methyl 5-chloro-6-piperazin-1-yl-pyridine-3-carboxylate; hydrochloride] | 4.00 to 5.30 |
| Clc1cc(Br)cnc1N1CCNCC1 [Example 19, 1-(5-bromo-3-chloro-2-pyridyl)piperazine;hydrochloride] | 4.00 to 5.30 |
| NCCc1ccc(OC(=O)c2cnc(N3CCNCC3)c(Cl)c2)cc1 [Example 28, [4-(2-aminoethyl)phenyl] 5-chloro-6-piperazin-1-yl-pyridine-3-carboxylate;dihydrochloride] | > 5.30 |
| NCc1cccc(OC(=O)c2cnc(N3CCNCC3)c(Cl)c2)c1 [Example 29, [3-(aminomethyl)phenyl] 5-chloro-6-piperazin-1-yl-pyridine-3-carboxylate;dihydrochloride] | > 5.30 |
| CCOC(=O)c1cnc(N2CCNCC2)c(Cl)c1 [Example 32, ethyl 5-chloro-6-piperazin-1-yl-pyridine-3-carboxylate; hydrochloride] | 4.00 to 5.30 |
| NCCc1ccc(NC(=O)c2cnc(N3CCNCC3)c(Cl)c2)cc1 [Example 34, N-[4-(2-aminoethyl)phenyl]-5-chloro-6-piperazin-1-yl-pyridine-3-carboxamide;dihydrochloride] | 4.00 to 5.30 |
| CC(=O)Nc1cnc(N2CCNCC2)c(Cl)c1 [Example 35, N-(5-chloro-6-piperazin-1-yl-3-pyridyl)acetamide;hydrochloride] | 3.30 to 4.00 |
| CS(=O)(=O)Nc1cnc(N2CCNCC2)c(Cl)c1 [Example 36, N-(5-chloro-6-piperazin-1-yl-3-pyridyl)methane sulfonamide;hydrochloride] | 3.30 to 4.00 |
| Clc1nc2ccccc2cc1N1CCNCC1 [Example 40, 2-chloro-3-piperazin-1-yl-quinoline;hydrochloride] | 4.00 to 5.30 |
| Cc1cc2nc(Cl)c(N3CCNCC3)nc2cc1C [Example 47, 2-chloro-6,7-dimethyl-3-piperazin-1-yl-quinoxaline;hydrochloride] | > 5.30 |
| C[C@H]1CN(c2nc3ccccc3nc2Cl)CCN1 [Example 50, 2-chloro-3-[(3S)-3-methylpiperazin-1-yl]quinoxaline;hydrochloride] | 4.00 to 5.30 |
| Clc1cc2cc(N3CCNCC3)ccc2nc1N1CCNCC1 [Example 56, 3-chloro-2,6-di(piperazin-1 yl)quinoline;dihydrochloride] | > 5.30 |
| Clc1cc2cc(Br)ccc2nc1N1CCNCC1 [Example 60, 6-bromo-3-chloro-2-piperazin-1-yl-quinoline;hydrochloride] | 4.00 to 5.30 |

| SMILES | pEC50 |
| --- | --- |
| Clc1cc2cc(I)ccc2nc1N1CCNCC1 [Example 61, 3-chloro-6-iodo-2-piperazin-1-yl-quinoline;hydrochloride] | > 5.30 |
| NCCNc1ccc2nc(N3CCNCC3)c(Cl)cc2c1 [Example 62, N′-(3-chloro-2-piperazin-1-yl-6-quinolyl)ethane-1,2-diamine; dihydrochloride] | > 5.30 |
| NCCCNc1ccc2nc(N3CCNCC3)c(Cl)cc2c1 [Example 63, N′-(3-chloro-2-piperazin-1-yl-6-quinolyl)propane-1,3-diamine; dihydrochloride] | > 5.30 |
| O=C1CNCCN1c1ccc2nc(N3CCNCC3)c(Cl)cc2c1 [Example 64, 1-(3-chloro-2-piperazin-1-yl-6-quinolyl)piperazin-2-one;dihydrochloride] | 4.00 to 5.30 |
| NCC(=O)Nc1ccc2nc(N3CCNCC3)c(Cl)cc2c1 [Example 65, 2-amino-N-(3-chloro-2-piperazin-1-yl-6-quinolyl)acetamide;dihydrochloride] | > 5.30 |
| Clc1cc2cc(N3CCCCC3)ccc2nc1N1CCNCC1 [Example 67, 3-chloro-2-piperazin-1-yl-6-(1-piperidyl)quinoline;hydrochloride] | 4.00 to 5.30 |
| NCC1CCCN(c2ccc3nc(N4CCNCC4)c(Cl)cc3c2)C1 (stereo not shown) [Example 68, [1-(3-chloro-2-piperazin-1-yl-6-quinolyl)-3-piperidyl]methanamine;dihydrochloride] | > 5.30 |
| Clc1cc2ncccc2nc1N1CCNCC1 [Example 69, 3-chloro-2-piperazin-1-yl-1,5-naphthyridine; hydrochloride] | 4.00 to 5.30 |
| COc1ccc2nc(Cl)c(N3CCNCC3)nc2c1 [Example 70, 2-chloro-6-methoxy-3-piperazin-1-yl-quinoxaline; hydrochloride] | 4.00 to 5.30 |
| NCCc1ccc(C(=O)Nc2cnc(N3CCNCC3)c(Cl)c2)cc1 [Example 71, 4-(2-aminoethyl)-N-(5-chloro-6-piperazin-1-yl-3-pyridyl)benzamide;dihydrochloride] | 4.00 to 5.30 |
| Cc1nnc(-c2cnc(N3CCNCC3)c(Cl)c2)o1 [Example 72, 2-(5-chloro-6-piperazin-1-yl-3-pyridyl)-5-methyl-1,3,4-oxadiazole] | 4.00 to 5.30 |
| Cc1nc(-c2cnc(N3CCNCC3)c(Cl)c2)no1 [Example 73, 3-(5-chloro-6-piperazin-1-yl-3-pyridyl)-5-methyl-1,2,4-oxadiazole;hydrochloride] | 4.00 to 5.30 |
| NCc1nc(-c2cnc(N3CCNCC3)c(Cl)c2)no1 [Example 74, [3-(5-chloro-6-piperazin-1-yl-3-pyridyl)-1,2,4-oxadiazol-5-yl]methanamine;dihydrochloride] | 4.00 to 5.30 |
| NCCc1nc(-c2cnc(N3CCNCC3)c(Cl)c2)no1 [Example 75, 2-[3-(5-chloro-6-piperazin-1-yl-3-pyridyl)-1,2,4-oxadiazol-5-yl]ethanamine;dihydrochloride] | > 5.30 |
| NCCCc1nc(-c2cnc(N3CCNCC3)c(Cl)c2)no1 [Example 76, 3-[3-(5-chloro-6-piperazin-1-yl-3-pyridyl)-1,2,4-oxadiazol-5-yl]propan-1-amine; dihydrochloride] | 4.00 to 5.30 |
| NCc1cccc(OCc2cnc(N3CCNCC3)c(Cl)c2)c1 [Example 77, [3-[(5-chloro-6-piperazin-1-yl-3-pyridyl)methoxy]phenyl]methanamine;dihydrochloride] | 4.00 to 5.30 |
| NCc1cccc(COc2cnc(N3CCNCC3)c(Cl)c2)c1 [Example 78, [3-[(5-chloro-6-piperazin-1-yl-3-pyridyl)oxymethyl]phenyl]methanamine;dihydrochloride] | 4.00 to 5.30 |
| Clc1cc(I)cnc1N1CCNCC1 [Example 79, 1-(3-chloro-5-iodo-2-pyridyl)piperazine] | 4.00 to 5.30 |
| CC(=O)Nc1cnc(N2CCN(C)CC2)c(Cl)c1 [Example 80, N-[5-chloro-6-(4-methylpiperazin-1-yl)-3-pyridyl]acetamide] | 4.00 to 5.30 |
| CN1CCN(c2nc3ccccc3cc2Cl)CC1 [Example 81, 3-chloro-2-(4-methylpiperazin-1-yl)quinoline] | 4.00 to 5.30 |
| O=C(Oc1ccccc1)c1cnc(N2CCNCC2)c(Cl)c1 [Example 84, Phenyl 5-chloro-6-piperazin-1-yl-pyridine-3-carboxylate; 2,2,2-trifluoroacetic acid] | 4.00 to 5.30 |
| NCC#Cc1cnc(N2CCNCC2)c(Cl)c1 [Example 85, 3-(5-chloro-6-piperazin-1-yl-3-pyridyl)prop-2-yn-1-amine; 2,2,2-trifluoroacetic acid] | 4.00 to 5.30 |
| NCCC#Cc1cnc(N2CCNCC2)c(Cl)c1 [Example 86, 4-(5-chloro-6-piperazin-1-yl-3-pyridyl)but-3-yn-1-amine; 2,2,2-trifluoroacetic acid] | 4.00 to 5.30 |
